The supplement of paper PMC10307832

Assays:
Assay in all cases: relative viability (nuclei count vs DMSO), 5 days (fraction); higher = more cells survive
[1] = compound: CC(C)C[C@@H](C(=O)N[C@H](C(=O)OC1CCCC1)c1ccccc1)[C@H](O)C(=O)NO [Tosedostat] + CS(=O)(=O)CCNCc1ccc(-c2ccc3ncnc(Nc4ccc(OCc5cccc(F)c5)c(Cl)c4)c3c2)o1 [Lapatinib] (partner 2 µM)
Procedure, shortened: (§1)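 Each reported value is a median over duplicate plates. It expresses relative viability: treated-well nuclei count divided by vehicle-well nuclei count. Lung cancer cell lines in 1536-well plates were dosed by pin tool a day after seeding, alone with one drug or with a fixed anchor-drug dose plus five library-drug doses (not always all listed) in √10 steps, and nuclei were counted after 5 days.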

[2] = compound: CC1=NN=C(O1)C2=NN=C(C=C2)N3CCC(CC3)OC4=C(C=CC(=C4)F)Cl + NC(=O)Nc1cc(-c2cccc(F)c2)sc1C(=O)N[C@H]1CCCNC1 [AZD7762] (partner 0.2 µM)
Procedure, shortened: as §1

[3] = compound: CC1=NN=C(O1)C2=NN=C(C=C2)N3CCC(CC3)OC4=C(C=CC(=C4)F)Cl + COc1cccc2cc(-c3nc([C@H]4CC[C@H](C(=O)O)CC4)n4ncnc(N)c34)[nH]c12 [OSI-027] (partner 0.5 µM)
Procedure, shortened: as §1

[4] = compound: CC(C)C[C@@H](C(=O)N[C@H](C(=O)OC1CCCC1)c1ccccc1)[C@H](O)C(=O)NO [Tosedostat] + COc1cc2c(Oc3ccc(NC(=O)C4(C(=O)Nc5ccc(F)cc5)CC4)cc3F)ccnc2cc1OCCCN1CCOCC1 [Foretinib] (partner 0.25 µM)
Procedure, shortened: as §1

Cell Line	relative viability ([1]; first compound 0.02 µM)	relative viability ([1]; first compound 0.06325 µM)	relative viability ([1]; first compound 0.2 µM)	relative viability ([1]; first compound 0.6325 µM)	relative viability ([1]; first compound 2 µM)	relative viability ([2]; first compound 0.253 µM)	relative viability ([2]; first compound 0.8 µM)	relative viability ([2]; first compound 2.53 µM)	relative viability ([2]; first compound 8 µM)	relative viability ([3]; first compound 0.253 µM)	relative viability ([3]; first compound 0.8 µM)	relative viability ([3]; first compound 2.53 µM)	relative viability ([3]; first compound 8 µM)	relative viability ([4]; first compound 0.02 µM)	relative viability ([4]; first compound 0.06325 µM)	relative viability ([4]; first compound 0.2 µM)	relative viability ([4]; first compound 0.6325 µM)	relative viability ([4]; first compound 2 µM)
HCC-827	0.185	0.196	0.203	0.189	0.159	0.299	0.158	0.213	0.2	0.602	0.362	0.653	0.591	0.999	1.09	1.06	0.946	0.895
HOP-62	1.08	0.935	1.08	0.891	0.983	0.556	0.22	0.452	0.228	0.762	0.579	0.771	0.555	1.27	1.09	1.09	1.02	1
IA-LM	0.885	0.925	0.61	0.746	0.645	–	–	–	–	–	–	–	–	1.18	1.19	1.19	1.12	0.903
LC-2-ad	1.02	0.981	0.993	0.909	1.04	0.394	0.391	0.398	0.379	0.689	0.678	0.632	0.682	0.987	0.939	0.941	0.842	0.806
LCLC-103H	–	–	–	–	–	0.62	0.657	0.633	0.631	0.372	0.426	0.426	0.385	0.787	0.797	0.878	0.797	0.777
NCI-H441	–	–	–	–	–	0.621	0.632	0.69	0.608	0.579	0.347	0.603	0.52	0.906	1.1	0.992	0.63	0.604
NCI-H520	0.815	0.984	0.96	0.923	1.03	–	–	–	–	0.336	–	0.337	0.244	0.807	0.776	–	0.834	0.819
NCI-H522	–	–	–	–	–	0.9	0.879	0.857	0.715	0.725	0.659	0.699	0.693	–	–	–	–	–
NCI-H661	0.428	0.479	0.449	0.591	0.425	–	–	–	–	0.633	0.588	0.528	0.484	1.07	0.99	0.98	0.979	0.937
NCI-H1299	1.02	0.954	0.96	0.951	0.892	–	–	–	–	–	–	–	–	1.15	1.14	1.14	1.04	0.966
NCI-H1563	1.03	1.03	0.957	0.956	1.05	–	–	–	–	0.772	0.854	0.77	0.834	0.961	0.997	0.958	1.12	1
NCI-H1623	–	–	–	–	–	–	–	–	–	0.36	0.457	0.392	0.429	0.825	0.905	0.856	0.843	0.794
